Measured values taken from patent US20180163250A1, “Screening Broths Comprising Esculatin Compounds for the Detection of Specific Microorganisms” (Neogen Corporation, priority 2016, published 2018).
Structures can show the parent of a compound that is named as a salt.

Assays:
Assay type in all cases: cell-based
[1] = test system: Listeria monocytogenes, NCTC5348 and NCTC10527; test: Pre- and post-incubation detection of enzymatic activity in Listeria express broth (LAB589)
Description: 3,4-cyclohexenoesculatin glucoside, was dissolved at 200 mg/ml in 50:50 mixture of dimethylformamide and water. The mixture was then added to pre-dispensed 10 ml volume samples of Listeria express broth (LAB589 from Lab M limited) as 25 μL additions from the prepared stock solutions. Additional broth samples without added chromogen were prepared and inoculated at the same time as the chromogen containing samples. The stock solution was then stored at −20° C. for 24 hours. A 0.5 Macfarlane standard suspension of Listeria monocytogenes, NCTC5348 and NCTC10527, was prepared from 18-24 hour cultures grown in tryptic soy broth (LAB004 from Lab M Limited) at 37° C. These were diluted so as to inoculate each sample with 100-1000 or 10,000-100,000 cfu. Samples were then incubated at 37° C. for 24 hours. The samples were then observed, and bacterial growth confirmed. 50 μL of a 250/mg/ml stock solution of ferric ammonium citrate was then added to each sample. Samples without 3,4-cyclohexenoesculatin glucoside chromogen were then supplemented with 25 μL additions from the stored 3,4-cyclohexenoesculatin glucoside stock solution and observed at ambient temperature for 30 minutes.

[2] = test system: Listeria monocytogenes NCTC 10257; test: Masking of fluorogenic reaction by CHE glucoside and ferric ammonium citrate in broth; settings: uv light
Description: 4-methylumbelliferyl-β-D glucopyranoside (MC633 from Sigma Aldrich) was dissolved in water at 100 mg/ml and 25 μL of this stock solution added to pre-dispensed 10 mL volumes of Lab589 (Lab M Limited) and Lab049 (Brain heart infusion broth Lab M limited). Listeria monocytogenes NCTC 10257 were prepared from 18-24 hour cultures grown in tryptic soy broth (LAB004 from Lab M Limited) at 37° C. These were diluted so as to inoculate each sample with 100-1000 cfu. Samples were then incubated at 37° C. for 24 hours. Samples were then observed and confirmed for bacterial growth, and further observed under an ultra violet light for fluorescence. The samples were then supplemented with 3,4-cyclohexenoesculatin glucoside (Biosynth C9218), from a 200 mg/ml in 50:50 mixture of dimethylformamide and water. 50 μL of a 250/mg/ml stock solution of ferric ammonium citrate was added to each sample, observing visually for blackening and under ultra violet light for fluorescence masking after 15 minutes incubation at ambient. Table 5 provides that 3,4-cyclohexenoesculatin glucoside can be used as an additional masking reagent to confirm fluorogenic based broth systems.

[3] = test system: methicillin resistant staphylococcus aureus strains; test: Growth and initial color change in MRSA screening broth (LAB588) containing the substrate; settings: for Initial color change indicating the presence of MRSA: LAB588 broth with cefoxitin, 100-1000 cfu
Description: (§1) CHE-phosphate, and 3,4-cyclohexenoesculatin diphosphate were dissolved at 200 mg/ml in a 50:50 mixture of dimethylformamide and water. 5-bromo-4-chloroindoxyl phosphate was dissolved at 200 mg/ml in a 50:50 mixture of ethanol and water. The mixtures of compounds were added individually to a MRSA broth (LAB588; Lab M limited) pre-dispensed to 10 ml volumes, after supplementation with cefoxitin selective agent, as 25 μL additions from the prepared stock solutions.
(§2) A 0.5 Macfarlane standard suspension of methicillin resistant staphylococcus aureus strains were prepared from 18-24 h cultures grown in tryptic soy broth (LAB004; Lab M Limited) at 37° C. These were diluted and added to the MRSA broth samples in an amount sufficient to inoculate each sample with 100-1000 colony forming units (cfu). Target concentration was achieved by diluting a culture to a target level and inoculating sets of tubes at different inoculum dilutions so as to achieve the target range. The actual quantity inoculated was confirmed by plating 50 μl of the dilution onto Tryptone soy agar (LAB011) and incubating the plates for 18-24 h at 37° C. and counting the resulting colonies. This information was used to determine which tubes had been inoculated within the target dosing range.
(§3) The broth is designed to selectively indicate a positive presence of MRSA by a yellow color, or a presumptive positive presence of MRSA by an orange color (Table 1). To the CHE-phosphate and 3,4-cyclohexenoesculatin diphosphate was added 50 μL of a 250/mg/ml stock solution of Ferric ammonium citrate and samples were allowed to incubate at ambient temperature for 5 minutes.

[4] = test system: phosphatase activity of methicillin resistant staphylococcus aureus; test: Blackening after addition of ferric ammonium citrate (free CHE, phosphatase activity) in MRSA broth; settings: for blackening after the addition of ferric ammonium citrate indicating the presence of free 3,4-cyclohexenoesculatin: 5 minutes at ambient temperature after FAC; for Color or masking reaction (blackening reaction, dark precipitate): MRSA broth, after ferric ammonium citrate
Description: as §1, §2, §3

[5] = L. monocytogenes NCTC 5348 100 cfu, glucoside added post incubation
[6] = L. monocytogenes NCTC 5348 100 cfu, glucoside added pre incubation
[7] = L. monocytogenes NCTC 5348 10000 cfu, glucoside added post incubation
[8] = L. monocytogenes NCTC 5348 10000 cfu, glucoside added pre incubation
[9] = L. monocytogenes NCTC 10527 100 cfu, glucoside added post incubation
[10] = L. monocytogenes NCTC 10527 100 cfu, glucoside added pre incubation
[11] = L. monocytogenes NCTC 10527 10000 cfu, glucoside added post incubation
[12] = L. monocytogenes NCTC 10527 10000 cfu, glucoside added pre incubation

Q: `O=c1oc2cc(O)c(O[C@@H]3O[C@H](CO)[C@@H](O)[C@H](O)[C@H]3O)cc2c2c1CCCC2` [3,4-cyclohexenoesculatin glucoside] was tested. Which “Color t = 0 minutes post iron addition” value [1, 5] did it give?
A: yellow

Q: And the “Color t = 15 minutes post iron addition” value [1, 5]?
A: Black

Q: What about the “Color t = 0 minutes post iron addition” value [1, 6] of the same compound?
A: Black

Q: What about the “Color t = 15 minutes post iron addition” value [1, 6] of the same compound?
A: Black

Q: What about the “Color t = 0 minutes post iron addition” value [1, 7] of the same compound?
A: yellow

Q: And the “Color t = 15 minutes post iron addition” value [1, 7]?
A: Black

Q: And the “Color t = 0 minutes post iron addition” value [1, 8]?
A: Black

Q: What about the “Color t = 15 minutes post iron addition” value [1, 8] of the same compound?
A: Black

Q: What about the “Color t = 0 minutes post iron addition” value [1, 9] of the same compound?
A: yellow

Q: What about the “Color t = 15 minutes post iron addition” value [1, 9] of the same compound?
A: Black

Q: What about the “Color t = 0 minutes post iron addition” value [1, 10] of the same compound?
A: Black

Q: And the “Color t = 15 minutes post iron addition” value [1, 10]?
A: Black

Q: What about the “Color t = 0 minutes post iron addition” value [1, 11] of the same compound?
A: yellow

Q: And the “Color t = 15 minutes post iron addition” value [1, 11]?
A: Black

Q: And the “Color t = 0 minutes post iron addition” value [1, 12]?
A: Black

Q: And the “Color t = 15 minutes post iron addition” value [1, 12]?
A: Black

Q: And the “Time to strong black reaction” value ([1]; glucoside added post incubation)?
A: about 15 minutes

Q: What about the “Time to strong black reaction on the addition of ferric ammonium citrate” value ([1]; samples incubated with the glucoside) of the same compound?
A: instantly

Q: `Cc1cc(=O)oc2cc(O[C@@H]3O[C@H](CO)[C@@H](O)[C@H](O)[C@H]3O)ccc12` [4-methylumbelliferyl-β-D glucopyranoside] was tested. Which “Appearance T = 15 minutes post iron addition” value ([2]; LAB049 broth) did it give?
A: fluorescent under uv light

Q: What about the “Appearance t = 0 minutes post iron addition” value ([2]; LAB049 broth) of the same compound?
A: fluorescent under uv light

Q: What about the “Appearance T = 15 minutes post iron addition” value ([2]; LAb589 broth) of the same compound?
A: fluorescent under uv light

Q: What about the “Appearance t = 0 minutes post iron addition” value ([2]; LAb589 broth) of the same compound?
A: fluorescent under uv light

Q: What does the source list for `O=c1oc2cc(OP(=O)(O)O)c(OP(=O)(O)O)cc2c2c1CCCC2` [Diphosphate, 3,4-cyclohexenoesculatin diphosphate tetra-potassium salt]?
A: Initial color change indicating the presence of MRSA ([3]; MRSA 3): Growth (yellow); Initial color change indicating the presence of MRSA ([3]; MRSA 15): Growth (yellow); Initial color change indicating the presence of MRSA ([3]; MRSA 15A (clinical isolate)): Growth (yellow); Initial color change indicating the presence of MRSA ([3]; MRSA 15B (clinical isolate)): Growth (yellow); Initial color change indicating the presence of MRSA ([3]; MRSA 15C (clinical isolate)): Growth (yellow); Initial color change indicating the presence of MRSA ([3]; MRSA 16A (clinical isolate)): Growth (yellow); Initial color change indicating the presence of MRSA ([3]; MRSA 16B (clinical isolate)): Growth (yellow); Initial color change indicating the presence of MRSA ([3]; MRSA 16C (clinical isolate)): Growth (yellow); Inhibition of the growth of MRSA ([3]; MRSA broth LAB588, summary of Table 1): not inhibitory; Initial color change indicating the presence of MRSA ([3]; S. aureus NCTC 12493): Growth (yellow); blackening after the addition of ferric ammonium citrate indicating the presence of free 3,4-cyclohexenoesculatin ([4]; MRSA 3): No change; blackening after the addition of ferric ammonium citrate indicating the presence of free 3,4-cyclohexenoesculatin ([4]; MRSA 15): No change; blackening after the addition of ferric ammonium citrate indicating the presence of free 3,4-cyclohexenoesculatin ([4]; MRSA 15A (clinical isolate)): No change; blackening after the addition of ferric ammonium citrate indicating the presence of free 3,4-cyclohexenoesculatin ([4]; MRSA 15B (clinical isolate)): No change; blackening after the addition of ferric ammonium citrate indicating the presence of free 3,4-cyclohexenoesculatin ([4]; MRSA 15 C (clinical isolate)): No change; blackening after the addition of ferric ammonium citrate indicating the presence of free 3,4-cyclohexenoesculatin ([4]; MRSA 16A (clinical isolate)): No change; blackening after the addition of ferric ammonium citrate indicating the presence of free 3,4-cyclohexenoesculatin ([4]; MRSA 16B (clinical isolate)): No change; blackening after the addition of ferric ammonium citrate indicating the presence of free 3,4-cyclohexenoesculatin ([4]; MRSA 16 C (clinical isolate)): No change; Color or masking reaction (blackening reaction, dark precipitate) [4]: does not produce the same dark precipitate; blackening after the addition of ferric ammonium citrate indicating the presence of free 3,4-cyclohexenoesculatin ([4]; S. aureus NCTC 12493): No change

Q: With `O=P(O)(O)Oc1c[nH]c2ccc(Br)c(Cl)c12` [Indoxyl phosphate, 5-bromo-4-chloroindoxyl phosphate, reference compound] as the compound, how does the “Initial color change indicating the presence of MRSA” value ([3]; MRSA 3) read?
A: Growth (orange)

Q: And the “Initial color change indicating the presence of MRSA” value ([3]; MRSA 15)?
A: Growth (orange)

Q: And the “Initial color change indicating the presence of MRSA” value ([3]; MRSA 15A (clinical isolate))?
A: Growth (orange)

Q: What about the “Initial color change indicating the presence of MRSA” value ([3]; MRSA 15B (clinical isolate)) of the same compound?
A: Growth (orange)

Q: And the “Initial color change indicating the presence of MRSA” value ([3]; MRSA 15C (clinical isolate))?
A: Growth (orange)

Q: And the “Initial color change indicating the presence of MRSA” value ([3]; MRSA 16A (clinical isolate))?
A: Growth (orange)

Q: And the “Initial color change indicating the presence of MRSA” value ([3]; MRSA 16B (clinical isolate))?
A: Growth (orange)

Q: And the “Initial color change indicating the presence of MRSA” value ([3]; MRSA 16C (clinical isolate))?
A: Growth (orange)

Q: What about the “Initial color change indicating the presence of MRSA” value ([3]; S. aureus NCTC 12493) of the same compound?
A: Growth (orange)

Q: And the “Color or masking reaction (blackening reaction, dark precipitate)” value [4]?
A: no detectable color or masking reaction
